Source: ChEMBL document CHEMBL1201861, “Genomics of Drug Sensitity in Cancer screening data, Wellcome Trust Sanger Institute”

Experiments:
Test in all cases: cells
BXPC-3 = type: functional, cell-based; settings: Homo sapiens;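 further: growth inhibition of human BxPC-3 cells, read out by a cell viability assay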
Description: SANGER: Inhibition of human BxPC-3 cell growth in a cell viability assay.

CAL-85-1 = type: functional, cell-based; settings: Homo sapiens;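 further: growth inhibition of human CAL-85-1 cells, read out with a cell viability assay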
Description: SANGER: Inhibition of human CAL-85-1 cell growth in a cell viability assay.

MKN-7 = type: functional, cell-based; settings: Homo sapiens;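 further: growth inhibition of MKN-7 cells, read out with a cell viability assay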
Description: SANGER: Inhibition of human MKN7 cell growth in a cell viability assay.

NCI-H2122 = type: functional, cell-based; settings: Homo sapiens;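 further: growth inhibition of the cells, read out with a cell viability assay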
Description: SANGER: Inhibition of human NCI-H2122 cell growth in a cell viability assay.

LN-405 = type: functional, cell-based; settings: Homo sapiens
Description: SANGER: Inhibition of human LN-405 cell growth in a cell viability assay.

HCC 2998 = type: functional, cell-based; settings: Homo sapiens;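 further: growth inhibition of human HCC2998 cells, measured with a cell viability read-out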
Description: SANGER: Inhibition of human HCC2998 cell growth in a cell viability assay.

SW1783 = type: functional, cell-based; settings: Homo sapiens;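 further: cell growth inhibition measured with a viability assay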
Description: SANGER: Inhibition of human SW1783 cell growth in a cell viability assay.

786-0 = type: functional, cell-based; settings: Homo sapiens
Description: SANGER: Inhibition of human 786-0 cell growth in a cell viability assay.

GCT = type: functional, cell-based; settings: Homo sapiens;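 further: GCT cell line proliferation inhibition, read out with a cell viability assay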
Description: SANGER: Inhibition of human GCT cell growth in a cell viability assay.

SW13 = type: functional, cell-based; settings: Homo sapiens;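 further: IC50 is inhibition of SW13 cell growth, read out with a cell viability assay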
Description: SANGER: Inhibition of human SW13 cell growth in a cell viability assay.

FTC-133 = type: functional, cell-based; settings: Homo sapiens
NCI-H596 = type: functional, cell-based; settings: Homo sapiens;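 further: growth inhibition of NCI-H596 cells, read out with a cell viability assay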
Description: SANGER: Inhibition of human NCI-H596 cell growth in a cell viability assay.

A2780 = type: functional, cell-based; settings: Homo sapiens;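 further: growth inhibition of A2780 cells, read out with a cell viability assay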
Description: SANGER: Inhibition of human A2780 cell growth in a cell viability assay.

ABC-1 = type: functional, cell-based; settings: Homo sapiens;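 further: growth inhibition of human ABC-1 cells, read out by a cell viability assay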
Description: SANGER: Inhibition of human ABC-1 cell growth in a cell viability assay.

HCC1937 = type: functional, cell-based; settings: Homo sapiens;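 further: growth inhibition measured with a cell viability read-out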
Description: SANGER: Inhibition of human HCC1937 cell growth in a cell viability assay.

SK-HEP1 = type: functional, cell-based, SK-HEP-1; settings: Homo sapiens;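 further: cell viability readout used to quantify reduction in proliferation of human SK-HEP-1 cells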
Description: SANGER: Inhibition of human SK-HEP-1 cell growth in a cell viability assay.

KYSE-150 cell line = type: functional, cell-based; settings: Homo sapiens;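 further: growth inhibition of human KYSE-150 cells, read out with a cell viability assay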
Description: SANGER: Inhibition of human KYSE-150 cell growth in a cell viability assay.

G-402 = type: functional, cell-based; settings: Homo sapiens
Description: SANGER: Inhibition of human G-402 cell growth in a cell viability assay.

NCI-H661 = type: functional, cell-based; settings: Homo sapiens;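 further: cell viability assay read-out, IC50 being the concentration that inhibits growth of the cells by half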
Description: SANGER: Inhibition of human NCI-H661 cell growth in a cell viability assay.

HCT-116 = type: functional, cell-based; settings: Homo sapiens
Description: SANGER: Inhibition of human HCT-116 cell growth in a cell viability assay.

NCI-H1793 = type: functional, cell-based; settings: Homo sapiens;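 further: cell growth inhibition, read out by a cell viability assay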
Description: SANGER: Inhibition of human NCI-H1793 cell growth in a cell viability assay.

YKG-1 = type: functional, cell-based; settings: Homo sapiens;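 further: cell growth inhibition, read out with a viability assay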
Description: SANGER: Inhibition of human YKG-1 cell growth in a cell viability assay.

ME-180 = type: functional, cell-based; settings: Homo sapiens;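 further: cell viability assay measuring growth inhibition of ME-180 cells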
Description: SANGER: Inhibition of human ME-180 cell growth in a cell viability assay.

A-375 = type: functional, cell-based; settings: Homo sapiens;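 further: growth inhibition of A375 cells, read out with a cell viability assay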
Description: SANGER: Inhibition of human A375 cell growth in a cell viability assay.

HT-29 = type: functional, cell-based; settings: Homo sapiens;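 further: growth inhibition of human HT-29 cells, read out by a cell viability assay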
Description: SANGER: Inhibition of human HT-29 cell growth in a cell viability assay.

NCI-H2452 = type: functional, cell-based; settings: Homo sapiens;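 further: growth inhibition of NCI-H2452 cells, read out with a cell viability assay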
Description: SANGER: Inhibition of human NCI-H2452 cell growth in a cell viability assay.

CAL-51 = type: functional, cell-based; settings: Homo sapiens;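 further: human CAL-51 cell line, growth inhibition read out via a cell viability assay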
Description: SANGER: Inhibition of human CAL-51 cell growth in a cell viability assay.

DMS-273 = type: functional, cell-based; settings: Homo sapiens
Description: SANGER: Inhibition of human DMS-273 cell growth in a cell viability assay.

SW1573 = type: functional, cell-based; settings: Homo sapiens;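 further: growth inhibition of SW1573 cells, read out with a cell viability assay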
Description: SANGER: Inhibition of human SW1573 cell growth in a cell viability assay.

BPH-1 = type: functional, cell-based; settings: Homo sapiens;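 further: cell viability assay measuring growth inhibition of human BPH-1 cells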
Description: SANGER: Inhibition of human BPH-1 cell growth in a cell viability assay.

JEG-3 = type: functional, cell-based; settings: Homo sapiens;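 further: growth inhibition of human JEG-3 cells, read out with a cell viability assay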
Description: SANGER: Inhibition of human JEG-3 cell growth in a cell viability assay.

KYSE-510 = type: functional, cell-based; settings: Homo sapiens;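 further: cell viability readout used to measure how strongly growth of the cell line is suppressed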
Description: SANGER: Inhibition of human KYSE-510 cell growth in a cell viability assay.

VM-CUB-1 = type: functional, cell-based; settings: Homo sapiens;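 further: cell viability assay measuring growth inhibition of the human VM-CUB-1 cell line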
Description: SANGER: Inhibition of human VM-CUB-1 cell growth in a cell viability assay.

A673 = type: functional, cell-based; settings: Homo sapiens;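 further: growth inhibition of human A673 cells, read out through a cell viability assay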
Description: SANGER: Inhibition of human A673 cell growth in a cell viability assay.

CAL-54 = type: functional, cell-based; settings: Homo sapiens;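 further: growth inhibition of CAL-54 cells, read out by a viability measurement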
Description: SANGER: Inhibition of human CAL-54 cell growth in a cell viability assay.

KYSE-140 = type: functional, cell-based; settings: Homo sapiens;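 further: cell viability assay measuring growth inhibition in human KYSE-140 cells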
Description: SANGER: Inhibition of human KYSE-140 cell growth in a cell viability assay.

PA-1 = type: functional, cell-based; settings: Homo sapiens;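 further: IC50 for suppression of PA-1 cell proliferation, determined with a cell viability read-out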
Description: SANGER: Inhibition of human PA-1 cell growth in a cell viability assay.

UMUC3 = type: functional, cell-based; settings: Homo sapiens;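 further: growth inhibition of human UM-UC-3 cells, read out with a cell viability assay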
Description: SANGER: Inhibition of human UM-UC-3 cell growth in a cell viability assay.

NCI-H2030 = type: functional, cell-based; settings: Homo sapiens;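 further: growth inhibition of human NCI-H2030 cells, read out by a cell viability assay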
Description: SANGER: Inhibition of human NCI-H2030 cell growth in a cell viability assay.

HSC-2 = type: functional, cell-based; settings: Homo sapiens;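 further: growth inhibition of human HSC-2 cells, read out by a cell viability assay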
Description: SANGER: Inhibition of human HSC-2 cell growth in a cell viability assay.

SK-MEL-24 = type: functional, cell-based; settings: Homo sapiens;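 further: growth inhibition read out by a cell viability assay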
Description: SANGER: Inhibition of human SK-MEL-24 cell growth in a cell viability assay.

NCI-H1651 = type: functional, cell-based; settings: Homo sapiens;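 further: Read-out is a cell viability assay, with IC50 expressing inhibition of NCI-H1651 cell growth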
Description: SANGER: Inhibition of human NCI-H1651 cell growth in a cell viability assay.

CAL-33 = type: functional, cell-based; settings: Homo sapiens;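 further: growth inhibition of CAL-33 cells, read out with a cell viability assay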
Description: SANGER: Inhibition of human CAL-33 cell growth in a cell viability assay.

C-33-A = type: functional, cell-based; settings: Homo sapiens;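 further: cell viability assay measuring growth inhibition of C-33-A cells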
Description: SANGER: Inhibition of human C-33-A cell growth in a cell viability assay.

THP-1 = type: functional, cell-based, Homo sapiens; settings: Homo sapiens, THP-1;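 further: growth inhibition of THP-1 cells, read out via a cell viability assay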
Description: SANGER: Inhibition of human THP-1 cell growth in a cell viability assay.

SIG-M5 = type: functional, cell-based, Homo sapiens; settings: Homo sapiens, SIG-M5;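 further: cell viability assay read-out, measuring how strongly growth of cultured human SIG-M5 cells is inhibited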
Description: SANGER: Inhibition of human SIG-M5 cell growth in a cell viability assay.

DG-75 = type: functional, cell-based, Homo sapiens; settings: Homo sapiens, DG-75;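 further: growth inhibition of DG-75 cells, read out with a cell viability assay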
Description: SANGER: Inhibition of human DG-75 cell growth in a cell viability assay.

LP-1 = type: functional, cell-based, Homo sapiens; settings: Homo sapiens, LP-1;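 further: growth inhibition of human LP-1 cells, with the read-out taken from a cell viability assay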
Description: SANGER: Inhibition of human LP-1 cell growth in a cell viability assay.

SR = type: functional, cell-based, Homo sapiens; settings: Homo sapiens, SR
Description: SANGER: Inhibition of human SR cell growth in a cell viability assay.

L-540 = type: functional, cell-based, Homo sapiens; settings: Homo sapiens, L-540;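 further: growth inhibition of the human L-540 cell line, read out with a viability assay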
Description: SANGER: Inhibition of human L-540 cell growth in a cell viability assay.

LU-165 = type: functional, cell-based, Homo sapiens; settings: Homo sapiens, LU-165
Description: SANGER: Inhibition of human LU-165 cell growth in a cell viability assay.

LB373-MEL-D = type: functional, cell-based, Homo sapiens; settings: Homo sapiens, LB373-MEL-D;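 further: growth inhibition of the cell line, read out in a cell viability assay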
Description: SANGER: Inhibition of human LB373-MEL-D cell growth in a cell viability assay.

HuTu80 = type: functional, cell-based, Homo sapiens, HUTU-80; settings: Homo sapiens, HuTu80;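 further: growth inhibition of HuTu80 human cells, determined with a cell viability readout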
Description: SANGER: Inhibition of human HUTU-80 cell growth in a cell viability assay.

CA46 = type: functional, cell-based, Homo sapiens; settings: Homo sapiens, CA46;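 further: growth inhibition of human CA46 cells, read out by a cell viability assay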
Description: SANGER: Inhibition of human CA46 cell growth in a cell viability assay.

MHH-CALL-2 = type: functional, cell-based, Homo sapiens; settings: Homo sapiens, MHH-CALL-2;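 further: growth inhibition of the cell line, read out in a cell viability assay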
Description: SANGER: Inhibition of human MHH-CALL-2 cell growth in a cell viability assay.

DMS-153 = type: functional, cell-based, Homo sapiens; settings: Homo sapiens, DMS-153
Description: SANGER: Inhibition of human DMS-153 cell growth in a cell viability assay.

KMOE-2 = type: functional, cell-based, Homo sapiens; settings: Homo sapiens, KMOE-2
Description: SANGER: Inhibition of human KMOE-2 cell growth in a cell viability assay.

EB2 = type: functional, cell-based, Homo sapiens; settings: Homo sapiens, EB2
Description: SANGER: Inhibition of human EB2 cell growth in a cell viability assay.

SNU-C1 = type: functional, cell-based, Homo sapiens; settings: Homo sapiens, SNU-C1
Description: SANGER: Inhibition of human SNU-C1 cell growth in a cell viability assay.

YT = type: functional, cell-based, Homo sapiens; settings: Homo sapiens, YT
Description: SANGER: Inhibition of human YT cell growth in a cell viability assay.

O=C1NC(=O)c2c1c(-c1ccccc1Cl)cc1[nH]c3ccc(O)cc3c21
IC50 (BXPC-3): > 2000 nM | IC50 (CAL-85-1): > 2000 nM | IC50 (MKN-7): > 2000 nM | IC50 (NCI-H2122): > 2000 nM | IC50 (LN-405): > 2000 nM | IC50 (HCC 2998): > 2000 nM | IC50 (SW1783): > 2000 nM | IC50 (786-0): > 2000 nM | IC50 (GCT): > 2000 nM | IC50 (SW13): > 2000 nM | IC50 (FTC-133): > 2000 nM | IC50 (NCI-H596): > 2000 nM | IC50 (A2780): > 2000 nM | IC50 (ABC-1): > 2000 nM | IC50 (HCC1937): > 2000 nM | IC50 (SK-HEP1): > 2000 nM | IC50 (KYSE-150 cell line): > 2000 nM | IC50 (G-402): > 2000 nM | IC50 (NCI-H661): > 2000 nM | IC50 (HCT-116): > 2000 nM | IC50 (NCI-H1793): > 2000 nM | IC50 (YKG-1): > 2000 nM | IC50 (ME-180): > 2000 nM | IC50 (A-375): 1520 nM | IC50 (HT-29): > 2000 nM | IC50 (NCI-H2452): > 2000 nM | IC50 (CAL-51): > 2000 nM | IC50 (DMS-273): > 2000 nM | IC50 (SW1573): > 2000 nM | IC50 (BPH-1): 1070 nM | IC50 (JEG-3): > 2000 nM | IC50 (KYSE-510): > 2000 nM | IC50 (VM-CUB-1): > 2000 nM | IC50 (A673): > 2000 nM | IC50 (CAL-54): > 2000 nM | IC50 (KYSE-140): > 2000 nM | IC50 (PA-1): > 2000 nM | IC50 (UMUC3): > 2000 nM | IC50 (NCI-H2030): 1290 nM | IC50 (HSC-2): > 2000 nM | IC50 (SK-MEL-24): > 2000 nM | IC50 (NCI-H1651): > 2000 nM | IC50 (CAL-33): > 2000 nM | IC50 (C-33-A): > 2000 nM

Cc1cc(N2CCOCC2)cc2[nH]c(-c3c(NC[C@@H](O)c4cccc(Cl)c4)cc[nH]c3=O)nc12
IC50 (THP-1): > 5120 nM | IC50 (SIG-M5): 323 nM | IC50 (DG-75): > 5120 nM | IC50 (LP-1): > 5120 nM | IC50 (SR): 2050 nM | IC50 (L-540): > 5120 nM | IC50 (LU-165): > 5120 nM | IC50 (LB373-MEL-D): > 5120 nM | IC50 (HuTu80): 466 nM | IC50 (CA46): > 5120 nM | IC50 (MHH-CALL-2): > 5120 nM | IC50 (DMS-153): > 5120 nM | IC50 (KMOE-2): > 5120 nM | IC50 (EB2): > 5120 nM | IC50 (SNU-C1): 2540 nM | IC50 (YT): > 5120 nM

C=CC(=O)N1CCCC(Nc2nc(Nc3ccc(N(C)C(=O)CC)cc3)nc3[nH]cnc23)C1 (stereo unspecified)
IC50 (THP-1): > 10200 nM | IC50 (SIG-M5): > 10200 nM | IC50 (DG-75): > 10200 nM | IC50 (LP-1): > 10200 nM | IC50 (SR): > 10200 nM | IC50 (L-540): > 10200 nM | IC50 (LU-165): > 10200 nM | IC50 (LB373-MEL-D): > 10200 nM | IC50 (HuTu80): > 10200 nM | IC50 (CA46): > 10200 nM | IC50 (MHH-CALL-2): > 10200 nM | IC50 (DMS-153): > 10200 nM | IC50 (KMOE-2): > 10200 nM | IC50 (EB2): > 10200 nM | IC50 (SNU-C1): > 10200 nM | IC50 (YT): > 10200 nM
